Results from US12691070B2, “Cationic lipids and preparation method thereof” (RiboX Therapeutics HK Limited, priority 2023, dated 2026).

Tests used:
RAW 264.7 cells [1] = test: In vitro toxicity (CellTiter-Glo cell viability), RAW 264.7; assay type: cell-based;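 also: percent of untreated cells luminescence signal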
In short: (§1)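 Toxicity of RNA-LNPs (1 μg/mL) is reported as cell viability, calculated from CellTiter-Glo luminescence measured at 72 hours after transfection.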

Hep G2 cells [2] = test: In vitro expression of firefly-luciferase, Hep G2; assay type: cell-based
In short: (§2)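 Transfection used 100 ng/mL luciferase-encoding RNA-LNPs; activity in lysates was determined at 72 h.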

[3] = test system: Alanine Aminotransferase (ALT); test: Liver enzyme elevation in serum, ALT; assay type: in vivo; conditions: cirRNA (SEQ ID NO: 1) LNPs, BALB/C mice, intravenous 0.5 MPK
Protocol: (§3) 6-8 week old, female BALB/C mice were injected with 0.5 mg*kg-1 of RNA LNPs by intravenous injection. At 2 and 24 hours post injection, animals were bled and sera concentrations of Alanine Aminotransferase (ALT) and Aspartate Aminotransferase (AST) were determined by a blood chemistry analyzer.

BALB/C mice [4] = test: In vivo expression, whole-body luminescence (IVIS)
Protocol: 6-8 week old, female BALB/C mice were injected with 0.05 mg*kg-1 of RNA-LNPs encoding for firefly-luciferase by intravenous injection. At 6 hours post injection, animals were intraperitoneally injected with 15 mg/ml of Luciferin substrate and whole-body luminescence was determined by a bioluminescent in vivo imaging system (IVIS).

[5] = LNP zeta potential (Zetasizer); assay type: physicochemical
In short: (§4)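 Dynamic light scattering and zeta potential measurements were run on PBS-dialyzed LNPs, which had been formed by microfluidic mixing at 12 ml/min with final lipid at 1.5 mM to 6 mM. RNA content and percent encapsulation were determined by Ribogreen with and without Triton X-100.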

[6] = LNP size and polydispersity index (PDI) by dynamic light scattering; assay type: physicochemical; conditions: for Size: in nm (unit assumed)
In short: as §4

BALB/C mice [7] = test: Local tolerance determination by footpad injection; assay type: in vivo; conditions: cirRNA (SEQ ID NO: 1) LNP, 0.175 mg*kg-1 subcutaneous into the footpad, 24 hours post minus prior
Protocol: 6-8 week old, female BALB/C mice were injected with 0.175 mg*kg-1 RNA LNPs by subcutaneous injection into the footpad. Prior to, and 24 hours post injections, injected footpad thickness was determined by a caliper.

MCP-I = MCP-I cytokine elevation in serum; assay type: in vivo; conditions: cirRNA (SEQ ID NO: 1) LNPs, mice
Protocol: 6-8 week old, female BALB/C mice were injected with 0.5 mg*kg-1 of RNA LNPs by intravenous injection. At 2 and 24 hours post injection, animals were bled and sera concentrations of MCP-I were determined by an immunoassay (Luminex).

[8] = RNA encapsulation efficacy by Quant-IT Ribogreen kit; assay type: physicochemical; conditions: for Encapsulation Efficiency %: LNP with cirRNA (SEQ ID NO: 1); for Encapsulation Efficiency: LNP with mRNA (SEQ ID NO: 2)
In short: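 Encapsulation efficacy came from Ribogreen fluorescence of LNPs compared with Triton X-100-lysed LNPs. The particles carried luciferase-encoding circular or linear RNA at an ionizable lipid:ribonucleotide ratio of 15 or 6.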

RAW 264.7 cells [9] = test: In vitro expression of firefly-luciferase, RAW 264.7; assay type: cell-based
In short: as §2

Hep G2 cells [10] = test: In vitro toxicity (CellTiter-Glo cell viability), Hep G2; assay type: cell-based;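 also: percent of untreated cells luminescence signal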
In short: as §1

[11] = test system: Aspartate Aminotransferase (AST); test: Liver enzyme elevation in serum, AST; assay type: in vivo; conditions: cirRNA (SEQ ID NO: 1) LNPs, BALB/C mice, intravenous 0.5 MPK
Protocol: as §3

[12] = cirRNA (SEQ ID NO: 1) LNPs, RAW 264.7 cells
[13] = mRNA (SEQ ID NO: 2) LNP, 1 μg/mL, 72 hours post transfection
[14] = cirRNA (SEQ ID NO: 1) LNPs, firefly-luciferase luminescence, Hep G2 cells
[15] = mRNA (SEQ ID NO: 2) LNP, 100 ng/mL, 72 hours post transfection, luciferase activity
[16] = cirRNA (SEQ ID NO: 1) LNPs, BALB/C mice
[17] = mRNA (SEQ ID NO: 2) LNP, 0.05 mg*kg-1 intravenous, 6 hours post injection
[18] = cirRNA (SEQ ID NO: 1) LNPs, firefly-luciferase luminescence, RAW 264.7 cells
[19] = cirRNA (SEQ ID NO: 1) LNPs, Hep G2 cells

Row | Structure (SMILES) | In vitro Viability RAW (RAW 264.7 cells [1]; [12]) [%] | In vitro Viability RAW (RAW 264.7 cells [1]; [13]) [%] | In vitro Expression HepG2 (Hep G2 cells [2]; [14]) | In vitro Expression HepG2 (Hep G2 cells [2]; [15]) | ALT in Sera (IU/L) 2 hours After 0.5 MPK Injection [3] [IU/L] | ALT in Sera (IU/L) 24 hours After 0.5 MPK Injection [3] [IU/L] | In vivo Expression (Whole Body) (BALB/C mice [4]; [16]) | In vivo Expression (Whole Body) (BALB/C mice [4]; [17]) | Zeta (mV) ([5]; LNP with cirRNA (SEQ ID NO: 1)) | Zeta (mV) ([5]; LNP with mRNA (SEQ ID NO: 2)) | PDI ([6]; LNP with cirRNA (SEQ ID NO: 1)) | Size ([6]; LNP with cirRNA (SEQ ID NO: 1)) | PDI ([6]; LNP with mRNA (SEQ ID NO: 2)) | Size ([6]; LNP with mRNA (SEQ ID NO: 2)) | Footpad Thickness (24 h−0 h, mm) (BALB/C mice [7]) [mm] | MCP-I in Sera 2 hours After 0.5 MPK Injection (MCP-I) [pg/mL] | MCP-I in Sera 24 hours After 0.5 MPK Injection (MCP-I) [pg/mL] | Encapsulation Efficiency % [8] [%] | Encapsulation Efficiency [8] [%] | In vitro Expression RAW (RAW 264.7 cells [9]; [18]) | further results
1 | CCCCCCCCCCCOC(=O)CCCCCN(CCCCCCCC(=O)OC(CCCCCCCC)CCCCCCCC)CCOC(=O)NCCN1CCCCC1 [Lipid 165] | 88 | 101 | 7.20E+05 | 3.27E+06 | 63.90 | 61.47 | 1.11E+08 | 1.63E+08 | −1.76 | −0.3264 | 0.05 | 90.53 | 0.1265 | 98.24 | 0.32 | 127.19 | 113.67 | 91 | 86.43 | 5.29E+04 | In vitro Expression RAW (RAW 264.7 cells [9]; [15]): 6.06E+05; In vitro Viability HepG2 (Hep G2 cells [10]; [19]): 94%; In vitro Viability HepG2 (Hep G2 cells [10]; [13]): 93%; AST in Sera (IU/L) 2 hours After 0.5 MPK Injection [11]: 128.43 IU/L; AST in Sera (IU/L) 24 hours After 0.5 MPK Injection [11]: 99.03 IU/L
2 | CCCCCCCCC(CCCCCC)C(=O)OCCCCCCCCN(CCCCCCCCOC(=O)C(CCCCCC)CCCCCCCC)CCCOC(=O)NCCN1CCCCC1 (stereo not shown) [Lipid 380] | 86 | 106 | 2.95E+07 | 7.30E+07 | 89.33 | 122.00 | 4.50E+08 | 4.00E+08 | −2.171 | −2.552 | 0.1668 | 112.8 | 0.02507 | 88.83 | 0.25 | 1168.73 | 1025.26 | 92 | 80.50 | 2.22E+06 | In vitro Expression RAW (RAW 264.7 cells [9]; [15]): 1.45E+06; In vitro Viability HepG2 (Hep G2 cells [10]; [19]): 89%; In vitro Viability HepG2 (Hep G2 cells [10]; [13]): 94%; AST in Sera (IU/L) 2 hours After 0.5 MPK Injection [11]: 196.33 IU/L; AST in Sera (IU/L) 24 hours After 0.5 MPK Injection [11]: 480.67 IU/L
3 | CCCCCCCCC(CCCCCC)C(=O)OCCCCCCCCN(CCCCCCCCOC(=O)C(CCCCCC)CCCCCCCC)CCCOC(=O)NCCCN(CC)CC (stereo not shown) [Lipid 376] | 87 | 100 | 4.84E+06 | 5.32E+05 | 117.33 | 141.33 | 1.16E+08 | 1.56E+09 | 9.074 | 5.722 | 0.1398 | 102 | 0.07745 | 87.9 | 0.89 | 6397.67 | 561.62 | 97 | 90.28 | 1.00E+06 | In vitro Expression RAW (RAW 264.7 cells [9]; [15]): 8.33E+04; In vitro Viability HepG2 (Hep G2 cells [10]; [19]): 48%; In vitro Viability HepG2 (Hep G2 cells [10]; [13]): 53%; AST in Sera (IU/L) 2 hours After 0.5 MPK Injection [11]: 434.67 IU/L; AST in Sera (IU/L) 24 hours After 0.5 MPK Injection [11]: 293.67 IU/L
4 | CCCCC/C=C\C/C=C\CCCCCCCCN(CCCCCCCC(=O)OC(CCCCCCCC)CCCCCCCC)CCCOC(=O)NCCCn1ccnc1 [Lipid 276] | 117 | 83 | 9.80E+05 | 3.01E+05 | 247.67 | 52.00 | 1.88E+08 | 1.26E+07 | −0.02248 | 0.8258 | 0.1464 | 64.42 | 0.07602 | 88.07 | 0.51 | 1659.21 | 120.48 | 96 | 94.50 | 1.07E+06 | In vitro Expression RAW (RAW 264.7 cells [9]; [15]): 8.16E+05; In vitro Viability HepG2 (Hep G2 cells [10]; [19]): 95%; In vitro Viability HepG2 (Hep G2 cells [10]; [13]): 115%; AST in Sera (IU/L) 2 hours After 0.5 MPK Injection [11]: 247.33 IU/L; AST in Sera (IU/L) 24 hours After 0.5 MPK Injection [11]: 89.67 IU/L
